This is an account of results in patent publication EP0519971B1, “NOVEL […] ACTIVE COMPOUNDS WHICH CAN BE FORMED FROM 1,3,4,6,7,8-HEXAHYDRO-2H-PYRIMIDO-(1,2-a)-PYRIMIDINE” (priority 1990, dated 1991).

One data set can be described thus: Solubility in water of TBD salts (crude samples). In kind it is physicochemical.
Conditions: not given
How it is done:
Solubilities were determined with the crude samples and indicate the volume of water sufficient to dissolve one gram of the salt.
Turning to `C1CN=C2NCCCN2C1.O=C(O)c1cc(Cl)ccc1[N+](=O)[O-]` [Example 11, TBD 5-chloro-2-nitrobenzoate], the Solubility in water is on record as no less than 40 g/100ml.

On to `C1CN=C2NCCCN2C1.O=C(O)c1ccc(Cl)c([N+](=O)[O-])c1` [Example 12, TBD 4-chloro-3-nitrobenzoate], for which the Solubility in water is no less than 40 g/100ml.

For `C1CN=C2NCCCN2C1.O=C(O)c1cc([N+](=O)[O-])ccc1O` [Example 13, TBD 5-nitrosalicylate (2-hydroxy-5-nitrobenzoate)], the Solubility in water is no less than 160 g/100ml.

Consider `C1CN=C2NCCCN2C1.O=C(O)c1ccc(Cl)cc1[N+](=O)[O-]` [Example 8, TBD 4-chloro-2-nitrobenzoate], for which the Solubility in water is no less than 10 g/100ml.

Take `C1CN=C2NCCCN2C1.O=C(O)Cc1ccc([N+](=O)[O-])cc1` [Example 9, TBD 4-nitrophenylacetate]: the Solubility in water is on record as no less than 20 g/100ml.

For the compound `C1CN=C2NCCCN2C1.C1CN=C2NCCCN2C1.O=C(O)c1cc(C(=O)O)cc([N+](=O)[O-])c1` [Example 17, TBD 5-nitroisophthalate (5-nitrobenzene-1,3-dicarboxylic acid bis TBD salt)], the Solubility in water was no less than 30 g/100ml.

With `C1CN=C2NCCCN2C1.O=C(O)c1ccccc1I` [Example 15, TBD 2-iodobenzoate], the Solubility in water is listed as no less than 10 g/100ml.

With `C1CN=C2NCCCN2C1.O=C(O)Cc1ccc([N+](=O)[O-])cc1[N+](=O)[O-]` [Example 10, TBD 2,4-dinitrophenylacetate], the Solubility in water is on record as no less than 30 g/100ml.

In the case of `C1CN=C2NCCCN2C1.O=C(O)c1ccc([N+](=O)[O-])c(O)c1` [Example 14, TBD 3-hydroxy-4-nitrobenzoate], the Solubility in water is reported as no less than 30 g/100ml.

Take “TBD 5-amino-5-hydroxybenzoate [Example 16]”: the Solubility in water is listed as no less than 10 g/100ml.

Test in another data set: not given
Conditions: pH 6.5.
As to `C1CN=C2NCCCN2C1.O=C(O)c1cc2ccccc2[nH]1` [Example 2, salt of 1,5,7-triazabicyclo-[4.4.7]dec-5-ene (TBD, HHPP) with indole-2-carboxylic acid], the “Solubility in distilled water” value came to 70 mg/mL.

The same data set, now with this note: solution in water.
In the case of `C1CN=C2NCCCN2C1.O=C(O)c1cc2ccccc2[nH]1` [Example 2, salt of 1,5,7-triazabicyclo-[4.4.7]dec-5-ene (TBD, HHPP) with indole-2-carboxylic acid], the pH of solution worked out at 6.5.
